Laboratory results as given in PMC7587962, “Evaluation of Cytotoxicity and α-Glucosidase Inhibitory Activity of Amide and Polyamino-Derivatives of Lupane Triterpenoids” (Molecules, 2020).

Key:
LOX IMVI = test: NCI-60 SRB screen: melanoma LOX IMVI; assay type: cell-based, human
A549/ATCC = test: NCI-60 SRB screen: non-small cell lung cancer A549/ATCC; assay type: cell-based, human; settings: A549/ATCC
HCT-116 = test: NCI-60 SRB screen: colon cancer HCT-116; assay type: cell-based; settings: Homo sapiens, 48 h, HCT-116
DU-145 = test: NCI-60 SRB screen: prostate cancer DU-145; assay type: cell-based, human; settings: DU-145
MDA-MB-231/ATCC = test: NCI-60 SRB screen: breast cancer MDA-MB-231/ATCC; assay type: cell-based; settings: Homo sapiens, 48 h
Leukemia subpanel = test: NCI-60 screen, subpanel Leukemia
HT29 = test: NCI-60 SRB screen: colon cancer HT29; assay type: cell-based; settings: Homo sapiens, HT29
786-0 = test: NCI-60 SRB screen: renal cancer 786-0; assay type: cell-based, human; settings: 786-0
M14 = test: NCI-60 SRB screen: melanoma M14; assay type: cell-based, human; settings: M14
BT-549 = test: NCI-60 SRB screen: breast cancer BT-549; assay type: cell-based, human; settings: BT-549
NCI-H23 = test: NCI-60 SRB screen: non-small cell lung cancer NCI-H23; assay type: cell-based, human; settings: NCI-H23
OVCAR-3 = test: NCI-60 SRB screen: ovarian cancer OVCAR-3; assay type: cell-based, human; settings: OVCAR-3
KM12 = test: NCI-60 SRB screen: colon cancer KM12; assay type: cell-based, human; settings: KM12
SF-295 = test: NCI-60 SRB screen: CNS cancer SF-295; assay type: cell-based, human; settings: SF-295
SN12C = test: NCI-60 SRB screen: renal cancer SN12C; assay type: cell-based, human
EKVX = test: NCI-60 SRB screen: non-small cell lung cancer EKVX; assay type: cell-based, human
SK-MEL-5 = test: NCI-60 SRB screen: melanoma SK-MEL-5; assay type: cell-based, human; settings: SK-MEL-5
UACC-62 = test: NCI-60 SRB screen: melanoma UACC-62; assay type: cell-based, human; settings: UACC-62
CCRF-CEM = test: NCI-60 SRB screen: leukemia CCRF-CEM; assay type: cell-based; settings: Homo sapiens, 48 h
Renal Cancer subpanel = test: NCI-60 screen, subpanel Renal Cancer
NCI-H226 = test: NCI-60 SRB screen: non-small cell lung cancer NCI-H226; assay type: cell-based, human; settings: NCI-H226
CAKI-1 = test: NCI-60 SRB screen: renal cancer CAKI-1; assay type: cell-based, human; settings: CAKI-1
HS 578T = test: NCI-60 SRB screen: breast cancer HS 578T; assay type: cell-based, human; settings: HS 578T
Prostate cancer subpanel = test: NCI-60 screen, subpanel Prostate cancer
UACC-257 = test: NCI-60 SRB screen: melanoma UACC-257; assay type: cell-based, human; settings: UACC-257
SNB-19 = test: NCI-60 SRB screen: CNS cancer SNB-19; assay type: cell-based, human; settings: SNB-19
U251 = test: NCI-60 SRB screen: CNS cancer U251; assay type: cell-based; settings: Homo sapiens, U251
OVCAR-8 = test: NCI-60 SRB screen: ovarian cancer OVCAR-8; assay type: cell-based, human; settings: OVCAR-8
NCI/ADR-RES = test: NCI-60 SRB screen: ovarian cancer NCI/ADR-RES; assay type: cell-based, human
HCT-15 = test: NCI-60 SRB screen: colon cancer HCT-15; assay type: cell-based, human; settings: HCT-15
MDA-MB-435 = test: NCI-60 SRB screen: melanoma MDA-MB-435; assay type: cell-based, human; settings: MDA-MB-435
MCF7 = test: NCI-60 SRB screen: breast cancer MCF7; assay type: cell-based; settings: Homo sapiens, 48 h, MCF7
MALME-3M = test: NCI-60 SRB screen: melanoma MALME-3M; assay type: cell-based, human; settings: MALME-3M
MOLT-4 = test: NCI-60 SRB screen: leukemia MOLT-4; assay type: cell-based; settings: Homo sapiens, 48 h, MOLT-4
K-562 = test: NCI-60 SRB screen: leukemia K-562; assay type: cell-based, human; settings: K-562
ACHN = test: NCI-60 SRB screen: renal cancer ACHN; assay type: cell-based, human
SW-620 = test: NCI-60 SRB screen: colon cancer SW-620; assay type: cell-based; settings: Homo sapiens, 48 h, SW-620
[1] = Homo sapiens, five concentrations, 48 h, SRB, read-out: GI50
[2] = single dose 10 µM, read-out: Percentage Cell Growth
[3] = five concentrations, SRB, read-out: GI50

C=C(C)[C@@H]1CC[C@]2(C(=O)NCCNCCNCCN)CC[C@]3(C)[C@H](CC[C@@H]4[C@@]5(C)CCC(=O)C(C)(C)[C@@H]5CC[C@]43C)[C@@H]12 [Compound 11]
GI50 (LOX IMVI; [1]): 8.72 µM | Percentage Cell Growth (LOX IMVI; single dose 10 µM): −68.23% | Percentage Cell Growth (A549/ATCC; single dose 10 µM): −76.50% | GI50 (A549/ATCC; [1]): 7.69 µM | activity at 10 µM (HCT-116; [2]): -80.7% | GI50 (HCT-116; [3]): 6.65 µM | Percentage Cell Growth (DU-145; single dose 10 µM): −56.67% | GI50 (DU-145; [1]): 7.47 µM | activity at 10 µM (MDA-MB-231/ATCC; MDA-MB-231/ATCC, single dose 10 µM, read-out: Percentage Cell Growth): -92.4% | GI50 (MDA-MB-231/ATCC; MDA-MB-231, MDA-MB-31/ATCC, five concentrations, SRB, read-out: GI50): 8.03 µM | MID b, average sensitivity of all cell line of particular subpanel (Leukemia subpanel): 7.73 µM | Selectivity, ratio MID a: MID b (Leukemia subpanel): 1.19 | activity at 10 µM (HT29; HT-29, 48 h, single dose 10 µM, read-out: Percentage Cell Growth): -77.4% | GI50 (HT29; HT-29, five concentrations, 48 h, SRB, read-out: GI50): 7.17 µM | Percentage Cell Growth (786-0; single dose 10 µM): −84.46% | GI50 (786-0; [1]): 7.8 µM | GI50 (M14; [1]): 8.38 µM | Percentage Cell Growth (M14; single dose 10 µM): −62.82% | Percentage Cell Growth (BT-549; single dose 10 µM): 58.31% | GI50 (BT-549; [1]): 8.91 µM | GI50 (NCI-H23; [1]): 9.14 µM | Percentage Cell Growth (NCI-H23; single dose 10 µM): −35.23% | GI50 (OVCAR-3; [1]): 7.65 µM | Percentage Cell Growth (OVCAR-3; single dose 10 µM): −72.48% | GI50 (KM12; [1]): 8.47 µM | Percentage Cell Growth (KM12; single dose 10 µM): −81.93% | GI50 (SF-295; [1]): 9.42 µM | Percentage Cell Growth (SF-295; single dose 10 µM): −54.47% | GI50 (SN12C; [1]): 7.56 µM | Percentage Cell Growth (SN12C; single dose 10 µM): −88.48% | GI50 (EKVX; [1]): 7.34 µM | Percentage Cell Growth (EKVX; single dose 10 µM): 11.37% | GI50 (SK-MEL-5; [1]): 6.98 µM | Percentage Cell Growth (SK-MEL-5; single dose 10 µM): −86.18% | GI50 (UACC-62; [1]): 8.96 µM | Percentage Cell Growth (UACC-62; single dose 10 µM): −77.94% | activity at 10 µM (CCRF-CEM; [2]): -11.3% | GI50 (CCRF-CEM; [3]): 9.65 µM | MID b, average sensitivity of all cell line of particular subpanel (Renal Cancer subpanel): 12.52 µM | Selectivity, ratio MID a: MID b (Renal Cancer subpanel): 0.73 | GI50 (NCI-H226; [1]): 7.74 µM | Percentage Cell Growth (NCI-H226; single dose 10 µM): 74.30% | Percentage Cell Growth (CAKI-1; single dose 10 µM): −8.79% | GI50 (CAKI-1; [1]): 5.87 µM | Percentage Cell Growth (HS 578T; single dose 10 µM): 47.76% | GI50 (HS 578T; [1]): 8.3 µM | MID b, average sensitivity of all cell line of particular subpanel (Prostate cancer subpanel): 6.87 µM | Selectivity, ratio MID a: MID b (Prostate cancer subpanel): 1.33 | GI50 (UACC-257; [1]): 7.91 µM | Percentage Cell Growth (UACC-257; single dose 10 µM): −10.66% | GI50 (SNB-19; [1]): 8.5 µM | Percentage Cell Growth (SNB-19; single dose 10 µM): −78.54% | activity at 10 µM (U251; U-251, 48 h, single dose 10 µM, read-out: Percentage Cell Growth): -81.8% | GI50 (U251; U-251, five concentrations, 48 h, SRB, read-out: GI50): 7.34 µM | GI50 (OVCAR-8; [1]): 8.41 µM | Percentage Cell Growth (OVCAR-8; single dose 10 µM): −75.03% | GI50 (NCI/ADR-RES; [1]): 8.41 µM | Percentage Cell Growth (NCI/ADR-RES; single dose 10 µM): −73.33% | Percentage Cell Growth (HCT-15; single dose 10 µM): −36.56% | GI50 (HCT-15; [1]): 7.65 µM | GI50 (MDA-MB-435; [1]): 8.7 µM | Percentage Cell Growth (MDA-MB-435; single dose 10 µM): −49.89% | activity at 10 µM (MCF7; [2]): -58% | GI50 (MCF7; [3]): 7.38 µM | GI50 (MALME-3M; [1]): 7.4 µM | Percentage Cell Growth (MALME-3M; single dose 10 µM): −72.82% | activity at 10 µM (MOLT-4; [2]): -16.3% | GI50 (MOLT-4; [3]): 6.96 µM | GI50 (K-562; Homo sapiens, K562, five concentrations, 48 h, SRB, read-out: GI50): 8.2 µM | Percentage Cell Growth (K-562; single dose 10 µM): −16.99% | GI50 (ACHN; [1]): 13.8 µM | Percentage Cell Growth (ACHN; single dose 10 µM): −83.29% | activity at 10 µM (SW-620; [2]): -76.7% | GI50 (SW-620; [3]): 7.91 µM
